Reference: patent US8940313B2, “Tyrosine-based prodrugs of antiviral agents” (priority 2010, dated 2015)
Values joined by “and” are separate entries in the source; they are usually repeats but may differ in a detail not shown here. Equal values may be shown once. Read-outs that look alike come from different tables or passages of the source.

Legend:
[1] = Enzymatic stability: hydrolysis in rat intestinal homogenate, pH 6.5, 37° C., LC-MS; conditions: per diastereoisomer, st = stable; for half-life: rat, intestinal homogenate, pH 6.5, T1/2 Int. Hom.
[2] = Chemical stability: hydrolysis in 200 mM phosphate buffer, 37° C., LC-MS; conditions: per diastereoisomer, st = stable
vaccinia virus = test: microbe, parasite or virus in culture; format: cell-based; conditions: read-out: IC50 Vaccinia
[3] = test system: human cytomegalovirus (HCMV); test: microbe, parasite or virus in culture; format: cell-based
KB cells = test: cells; format: cell-based; conditions: read-out: IC50 KB
cowpox virus = test: microbe, parasite or virus in culture; format: cell-based; conditions: read-out: IC50 Cow Pox
herpes simplex 1 (HSV-1) = test: microbe, parasite or virus in culture; format: cell-based
HFF cells = test: cells; format: cell-based, human; conditions: read-out: IC50 HFF
[4] = Oral bioavailability / transport study in mice, plasma LC-MS; conditions: oral AUC / intravenous AUC, dose-adjusted, total HPMPA-containing species in plasma
[5] = test system: poxviruses (vaccinia and cowpox viruses); format: cell-based
[6] = pH 7.4, T1/2 Buffer pH 7.4, 200 mM phosphate buffer pH 7.4, 37° C.
[7] = Human alphaherpesvirus 1, read-out: IC50 HSV-1
[8] = Human betaherpesvirus 5, read-out: IC50 HCMV

Row | SMILES | T1/2 Int. Hom. [1] | IC50 (vaccinia virus; Orthopoxvirus vaccinia, HFF) | IC50 (KB cells; Homo sapiens, KB, 48 h) | IC50 (HFF cells; Homo sapiens, HFF) | IC50 (cowpox virus; Cowpox virus, HFF) | IC50 (herpes simplex 1 (HSV-1); [7]) | IC50 [3, 8] | other results
1 | COC(=O)[C@@H](N)Cc1ccc(OP2(=O)CO[C@@H](Cn3cnc4c(N)ncnc43)CO2)cc1 (single isomer, unassigned) [1a (S,R)] |  |  |  |  |  |  |  | half-life [1]: < 28 min
2 | COC(=O)[C@@H](N)Cc1ccc(OP2(=O)CO[C@@H](Cn3cnc4c(N)ncnc43)CO2)cc1 (single isomer, unassigned) [1a (S,S)] | <28 min |  |  |  |  |  |  | 
3 | COC(=O)[C@H](Cc1ccc(OP2(=O)CO[C@@H](Cn3cnc4c(N)ncnc43)CO2)cc1)NC(=O)[C@@H](N)C(C)C (single isomer, unassigned) [1f (S,R)] |  |  |  |  |  |  |  | half-life [1]: < 28 min
4 | COC(=O)[C@H](Cc1ccc(OP2(=O)CO[C@@H](Cn3cnc4c(N)ncnc43)CO2)cc1)NC(=O)[C@@H](N)C(C)C (single isomer, unassigned) [1f (S,S)] | <28 min |  |  |  |  |  |  | half-life ([2]; pH 6.5, T1/2 Buffer pH 6.5, 200 mM phosphate buffer pH 6.5, 37° C.): 67 min
5 | COC(=O)[C@@H](N)Cc1ccc(OP2(=O)CO[C@@H](Cn3ccc(N)nc3=O)CO2)cc1 (single isomer, unassigned) [2a (S,R)] |  |  |  |  |  |  |  | half-life [1]: < 30 min
6 | COC(=O)[C@@H](N)Cc1ccc(OP2(=O)CO[C@@H](Cn3ccc(N)nc3=O)CO2)cc1 (single isomer, unassigned) [2a (S,S)] | <30 min |  |  |  |  |  |  | half-life [2, 6]: 19 min
7 | COC(=O)[C@H](N)Cc1ccc(OP2(=O)CO[C@@H](Cn3ccc(N)nc3=O)CO2)cc1 (single isomer, unassigned) [2b (S,R)] | 210 min |  |  |  |  |  |  | 
8 | COC(=O)[C@H](N)Cc1ccc(OP2(=O)CO[C@@H](Cn3ccc(N)nc3=O)CO2)cc1 (single isomer, unassigned) [2b (S,S)] | 72 min |  |  |  |  |  |  | half-life [2, 6]: 21 min
9 | CC(C)CNC(=O)[C@@H](N)Cc1ccc(OP2(=O)COC(Cn3cnc4c(N)ncnc43)CO2)cc1 (single isomer, unassigned) [(S,R)-1e] |  |  |  |  |  |  |  | T1/2 Int. Hom. ([1]; listed as 1e (S,R)): 630 min; IC50 (vaccinia virus): 1 µM; IC50 ([3]; read-out: IC50 HCMV): 0.55 µM; IC50 (KB cells): > 100 µM; IC50 (cowpox virus): 2.5 µM
10 | CC(C)CNC(=O)[C@@H](N)Cc1ccc(OP2(=O)COC(Cn3cnc4c(N)ncnc43)CO2)cc1 (single isomer, unassigned) [(S,S)-1e] |  | 1.5 µM | > 100 µM | > 100 µM | 2 µM |  |  | T1/2 Int. Hom. ([1]; listed as 1e (S,S)): 114 min; IC50 ([3]; read-out: IC50 HCMV): 1.3 µM; IC50 (herpes simplex 1 (HSV-1); read-out: IC50 HSV-1): 35 µM
11 | CC(C)OC(=O)[C@@H](N)Cc1ccc(OP2(=O)CO[C@@H](Cn3ccc(N)nc3=O)CO2)cc1 (stereo partly drawn) [2c (S,R)] | <30 min |  |  |  |  |  |  | 
12 | CC(C)OC(=O)[C@@H](N)Cc1ccc(OP2(=O)CO[C@@H](Cn3ccc(N)nc3=O)CO2)cc1 (stereo partly drawn) [2c (S,S)] | <30 min |  |  |  |  |  |  | 
13 | CC(C)(C)NC(=O)[C@H](N)Cc1ccc(OP2(=O)CO[C@@H](Cn3ccc(N)nc3=O)CO2)cc1 (stereo partly drawn) [2d (S,R)] | 1732 min |  |  |  |  |  |  | 
14 | CC(C)(C)NC(=O)[C@H](N)Cc1ccc(OP2(=O)CO[C@@H](Cn3ccc(N)nc3=O)CO2)cc1 (stereo partly drawn) [2d (S,S)] | 203 min |  |  |  |  |  |  | 
15 | Nc1nc2c(ncn2COCCO)c(=O)[nH]1 [ACV, Acyclovir, reference compound] |  |  |  |  |  | 0.6 µM |  | IC50 (herpes simplex 1 (HSV-1); read-out: IC50 HSV-1): 0.7 µM
16 | Nc1ncnc2c1ncn2C[C@@H](CO)OCP(=O)(O)O [Compound 1, (S)-9-(3hydroxy-2-phosphonyl-methoxypropyl)adenine, reference compound] |  |  |  |  |  |  |  | IC50 (vaccinia virus): 2 µM; IC50 ([3]; read-out: IC50 HCMV): 0.41 µM; IC50 (herpes simplex 1 (HSV-1); read-out: IC50 HSV-1): 35 µM; IC50 (KB cells): > 100 µM; IC50 (cowpox virus): 4 µM; total oral bioavailability [4]: 5%
17 | COC(=O)[C@@H](N)Cc1ccc(OP2(=O)CO[C@@H](Cn3cnc4c(N)ncnc43)CO2)cc1 (stereo partly drawn) [Compound 1a, Methyl(2S)-2-amino-3-(4-{[(5S)-5-[(6-amino-9H-purin-9-yl)methyl]-2-oxo-1,4,2λ^5-dioxaphosphinan-2-yl]oxy}phenyl)propanoate] |  | 3 µM | > 100 µM | > 100 µM | 3.5 µM | 35 µM | 0.45 µM | 
18 | CC(C)CNC(=O)[C@@H](N)Cc1ccc(OP2(=O)COC(Cn3cnc4c(N)ncnc43)CO2)cc1 (stereo partly drawn) [Compound 1e, (2S)-2-Amino-3-[4-({5-[(6-amino-9H-purin-9-yl)methyl]-2-oxo-1,4,2λ^5-dioxaphosphinan-2-yl}oxy)phenyl]-N-(2-methylpropyl)propanamide] |  | 4.5 µM | > 100 µM | > 100 µM | 7 µM | 50 µM | 0.3 µM | 
19 | COC(=O)[C@H](Cc1ccc(OP2(=O)CO[C@@H](Cn3cnc4c(N)ncnc43)CO2)cc1)NC(=O)[C@@H](N)C(C)C (stereo partly drawn) [Compound 1f, Methyl(2S)-2-[(2S)-2-amino-3-methylbutanamido]-3-[4-({(5S)-5-[(6-amino-9H-purin-9-yl)methyl]-2-oxo-1,4,2λ^5-dioxaphosphinan-2-yl}oxy)phenyl]propanoate] |  | 4 µM | > 100 µM | 100 µM | 8 µM | 35 µM | 0.3 µM | 
20 | Nc1ccn(C[C@@H](CO)OCP(=O)(O)O)c(=O)n1 [Compound 2, (S)-HPMPC, reference compound] |  | 20 µM |  | 100 µM | 30 µM |  | 0.28 µM | IC50 (vaccinia virus): 15 µM; IC50 (cowpox virus): 15 µM and 20 µM
21 | COC(=O)[C@@H](N)Cc1ccc(OP2(=O)CO[C@@H](Cn3ccc(N)nc3=O)CO2)cc1 (stereo partly drawn) [Compound 2a, Methyl-(2S)-2-amino-3-(4-{[(5S)-5-[(4-amino-2-oxo-2H-pyrimidin-1-yl)-methyl]-2-oxo-1,4,2λ^5-dioxaphosphinan-2-yl]oxy}phenyl)propanoate] |  | 4 µM | > 100 µM | > 100 µM | 50 µM | 25 µM | 0.23 µM | 
22 | COC(=O)[C@H](N)Cc1ccc(OP2(=O)CO[C@@H](Cn3ccc(N)nc3=O)CO2)cc1 (stereo partly drawn) [Compound 2b, Methyl(2R)-2-amino-3-(4-{[(5S)-5-[(4-amino-2-oxo-2H-pyrimidin-1-yl)-methyl]-2-oxo-1,4,2λ^5-dioxaphosphinan-2-yl]oxy}phenyl)propanoate] |  | 25 µM | > 100 µM | > 100 µM | 35 µM | 35 µM | 0.2 µM | 
23 | CC(C)OC(=O)[C@@H](N)Cc1ccc(OP2(=O)CO[C@@H](Cn3ccc(N)nc3=O)CO2)cc1 (stereo partly drawn) [Compound 2c] |  |  |  |  |  |  |  | IC50 (vaccinia virus): 30 µM; IC50 ([3]; read-out: IC50 HCMV): 0.12 µM; IC50 (herpes simplex 1 (HSV-1); read-out: IC50 HSV-1): 20 µM; IC50 (KB cells): > 100 µM; IC50 (HFF cells): > 100 µM; IC50 (cowpox virus): 40 µM
24 | CCC(C)[C@H](N)C(=O)N[C@@H](Cc1ccc(OP2(=O)CO[C@@H](Cn3ccc(N)nc3=O)CO2)cc1)C(=O)OC (stereo partly drawn) [Compound 2f, Methyl(2S)-3-[4-({(5S)-5-[(4-amino-2-oxo-1,2-dihydropyrimidin-1-yl)methyl]-2-oxo-1,4,2λ^5-dioxaphosphinan-2-yl}oxy)phenyl]-2-[(2S)-2-amino-3-ethylbutanamido]propanoate] |  | 20 µM | > 100 µM | > 100 µM | 30 µM | 15 µM | < 0.1 µM | 
25 | Nc1ncnc2c1ncn2C[C@H]1COP(=O)(O)CO1 [Compound 6, cHPMPA, reference compound] |  | 1 µM | > 100 µM | 100 µM | 0.6 µM | 30 µM | 1.3 µM | 
26 | CC(C)CNC(=O)[C@@H](N)Cc1ccc(OP(=O)(O)CO[C@H](CO)Cn2cnc3c(N)ncnc32)cc1 [Compound 8, 4-[(2S)-2-amino-2-[(2-methylpropyl)carbamoyl]ethyl]phenoxy({[(2S)-1-(6-amino-9H-purin-9-yl)-3-hydroxypropan-2-yl]oxy}methyl)phosphinic acid] | st | 0.5 µM | > 100 µM | > 100 µM | 3 µM | 45 µM | 0.29 µM | activity against all these viruses [5]: active
27 | Nc1nc(O)c2ncn(COC(CO)CO)c2n1 [DHPG, ganciclovir, reference compound] |  |  |  | > 100 µM |  |  | 2.4 µM | 
